Data from patent US5872124A, “Treatment of diseases of the central nervous system using uric acid as a scavenger of peroxynitrite” (Thomas Jefferson University, priority 1996, dated 1999).

Tests used:
Water solubility = assay type: physicochemical
[1] = test system: experimental allergic encephalomyelitis (EAE), PLP immunization; test: Survival of SWXJ-14 mice with EAE; assay type: in vivo
Experimental: FIG. 14. Comparison of the survival of SWXJ-14 mice with EAE treated with PTIO and uric acid. SWXJ-mice were immunized with PLP in CFA as described for FIG. 12 and treated once daily with a 2 mg dose of uric acid or PTIO i.p. from day 5 to day 13, followed by two daily doses on day 14 and three daily doses thereafterward.
To more directly compare the action of PTIO and uric acid in EAE we have administered each of these agents in parallel to PLP-immunized SWXJ-14 mice. In these experiments the mice were immunized with PLP and treated with increasing doses of PTIO or uric acid beginning at day 5 after immunization.

nitric oxide (NO) [2] = test: NO levels in spinal cord and brain of SJL mice with EAE; assay type: in vivo
Experimental: SJL mice are immunized subcutaneously with pMBP in adjuvant to induce EAE, from which they often recover. Commencing ten days post-immunization, groups of mice (n=6) were treated once daily with 2 mg of either PTIO or carboxy-PTIO intraperitoneally and observed for clinical signs of EAE which were graded as detailed in Table 1. […] At 18 days […], NO determinations were performed in several mice from each group.

nitric oxide (NO) [3] = test: NO level in spinal cord of Lewis rats with adoptive transfer EAE (spin trapping, EPR); assay type: in vivo
Experimental: (§1) In FIG. 1, EAE was elicited in 11 week old female Lewis rats by the adoptive transfer of 20×10^6 cells of the MBP-specific line 5HGBP.G5 activated by stimulation with MBP and syngeneic APC 48 hours previously and NO levels measured 5 days after transfer. In SWXJ-14 mice, EAE was triggered by two subcutaneous immunizations (d.0 and 7) with 100 μg PLP in CFA over two injection sites, and NO levels measured 18 days later. Results expressed represent the mean values obtained from a minimum of 4 animals. Peak severity of the symptoms of EAE ranged from 2-3 for the rats and 4-5 for the mice. NO was semi-quantitated using spin trapping with DETC and EPR-spectroscopy as described previously.
(§2) Rats were injected i.v. with 20×10^6 MBP-specific CD4 T cells activated in vitro. Two days later the animals were treated with a single dose of either PTIO (20 mg) or a mixture of PTIO (20 mg), indomethacin (1 mg), and allopurinol (13 mg). Treatment was continued on a daily basis until day 4 and animals were sacrificed for NO measurement the following day.

[4] = test system: experimental allergic encephalomyelitis (EAE), MBP-specific T cell transfer; test: Clinical severity of adoptive transfer EAE in Lewis rats; assay type: in vivo
From the text: (§3) Induction of EAE in rats by adoptive transfer of MBP-specific T cells or in SJL or SWXJ-14 mice by immunization with MBP or PLP 139-151, a peptide derived from […] [8], results in variable disease. We have scored the clinical systems of EAE as tabulated below.
______________________________________
(§4) Severity scores and symptoms of Experimental Allergic
(§5) 1 piloerection, tail weakness
(§6) 3 hind limb weakness/paralysis
(§7) 4 hind and forelimb paralysis
as §1, §2

[5] = test system: experimental allergic encephalomyelitis (EAE), PLP immunization; test: Clinical severity of PLP-induced EAE in SWXJ-14 mice; assay type: in vivo; conditions: started 4-5 days after immunization with myelin antigens
Experimental: FIG. 2. Effect of daily administration of c-PTIO (carboxy-PTIO) on EAE in SWXJ-14 mice. EAE was induced in SWJX-14 mice by two subcutaneous immunizations (d.0 and d.7) of […] PLP in CFA over two injection sites. Mice (N=3) were treated beginning on day 5 post-immunization with 2 mg/mouse c-PTIO […] i.p. and was continued until day 16 post-immunization (day 0 being the day of first immunization). Mean severity scores were graded as detailed in Table 1.
FIG. 4. Effect of D609 on the development of EAE in SWXJ-14 mice. SWXJ-mice were immunized with PLP as detailed for FIG. 2. Mice (n=2) were treated i.p. with 1 mg/mouse D609 from day 5 through day 14 post-immunization. Mean severity scores were graded as detailed in Table 1.
FIG. 12. Effect of the administration of various doses of uric acid on EAE in SWXJ-14 mice. EAE was induced in SWXJ-14 mice by two subcutaneous immunizations (d.0 and 7) of […] PLP in CFA over two injection sites. Mice (n=5) were treated once daily, beginning on day 5 post-immunization, with the indicated doses of uric acid. Mean severity scores were graded as detailed in Table 1.
as §3, §4, §5, §6, §7, §1
Clinical symptoms manifest as an ascending paralysis approximately 13 days after immunization and the disease rapidly progresses to its fatal endpoint by day 16-20. […] NO levels in the brains and spinal cords of animals treated with a single daily dose of PTIO were semi-quantitated by spin trapping and EPR spectroscopy on day 17 after immunization, one day after treatment was terminated. […] We expect that the removal of NO by PTIO should not necessarily interfere with the induction of the response responsible for NO production and that as the supplied PTIO is used up NO levels should rapidly return to control values.
In contrast to SJL mice, SWX mice immunized with PLP undergo a progressive,often fatal form of EAE. Clinical symptoms manifest as an ascending paralysis approximately 13 days after immunization and the disease rapidly progresses to its fatal endpoint by days 16-20. […] We conclude that the amount of carboxy-PTIO we administered, especially considering the short in vivo half life of the compound, was only sufficient to delay the onset of the EAE in the SWXJ-14 mouse.
NO is not universally considered to be a molecule with significant in vivo toxicity and peroxynitrite is thought to be the more toxic molecule produced by activated inflammatory cells resulting from the interaction of NO and superoxide. We would henceforth expect that removal of NO would reduce peroxynitrite formation. To determine whether NO or peroxynitrite is more likely to be ultimately responsible for clinical disease in EAE we have performed a series of experiments using uric acid, a known scavenger of peroxynitrite, to treat EAE induced in SWXJ-14 mice by immunization with PLP.

[6] = mice, within 4 hours [17]; cited from earlier work

## CC1(C)N([O])C(c2ccccc2)=[N+]([O-])C1(C)C [PTIO, 2-phenyl-4,4,5,5-tetramethylimidazoline-1-oxyl-3-oxide]
Water solubility
  Water solubility: not water soluble
[1]; at termination of the experiment
  Improvement in clinical signs of surviving mice (FIG. 14): a number were actually beginning to show some improvement in the clinical signs of their disease
[1]; several days after day 18, 2 mg i.p. once daily day 5-13, two doses day 14, then three daily
  Mice still alive (FIG. 14): 40%
Nitric oxide (NO) [2]; 2 mg once daily i.p., day 18
  NO levels in spinal cord (FIG. 8): lower in the spinal cords
Nitric oxide (NO) [2]; SJL mice, i.p. administration
  Levels of NO in spinal cord: reduce levels of NO detected in spinal cord
Nitric oxide (NO) [2]; SJL mouse - immunization EAE, Table 2
  NO-spinal cord: 1.6 mM
Nitric oxide (NO) [3]; Rat-adoptive transfer EAE, Table 2
  NO-spinal cord: undetectable
Nitric oxide (NO) [3]; rats, adoptive transfer EAE, i.p. administration
  Levels of NO in spinal cord: reduce levels of NO detected in spinal cord
[4]; PTIO 20 mg daily from day 2 to day 4 after T cell transfer, alone or in mix
  Symptoms of disease (FIG. 6): little or no symptoms of disease
[4]; Rat-adoptive transfer EAE, severity score 1-5, Table 2
  Clinical severity: 0.8
[4]; animals subjected to stimuli that induce EAE (species not specified)
  Duration of alleviation of clinical symptoms between doses: at least 24 hours
[4]; rats, MBP-specific T cell transfer, i.p. administration
  Clinical symptoms of EAE: forestall the appearance of clinical symptoms of EAE
[5]
  Effectiveness when treatment is started after immunization: effective when started 4-5 days after immunization with myelin antigens
[6]
  Amount accounted for in excretions: Approximately 75%
